Data reported in US9956157B2, “Composition containing fucosterol for skin whitening or moisturizing” (INDUSTRY-ACADEMIC COOPERATION FOUNDATION, YONSEI UNIVERSITY, priority 2014, dated 2018).

Tests used:
Format in all cases: cell-based
loricrin = assay: Loricrin mRNA expression (RT-PCR) in HaCaT human keratinocytes; conditions: HaCaT cells, fucosterol 5, 10, 20 μM, 24 hrs, FIG. 9
Procedure: (§1) HaCaT human keratinocytes were incubated in a Dulbecco's Modified Eagle's Media (DMEM) medium including 10% fetal bovine serum and then put in a 6-well plate with 2×10^5 cell/ml (the final volume of 3 ml). After being incubated for 24 hrs, the medium was removed and fucosterol which was dissolved in the DMEM medium was treated at 5, 10, and 20 μM concentrations, respectively. After 24 hrs, the total RNA was collected by using a TRIzol reagent (Invitrogen, Carlsbad, Calif., USA) and reverse-transcribed and then a reverse transcription-polymerase chain reaction (RT-PCR) analysis was performed below. First, for cDNA synthesis, the RNA was reverse-transcribed by reverse transcriptase. The RT-PCR was performed by specific primers below and the result was illustrated in FIG. 9.

filaggrin = assay: Filaggrin mRNA expression (RT-PCR) in HaCaT human keratinocytes; conditions: HaCaT cells, fucosterol 5, 10, 20 μM, 24 hrs, FIG. 11
Procedure: as §1, with “11.” for “9.”

transglutaminase = assay: Transglutaminase protein expression (western blot) in HaCaT human keratinocytes; conditions: HaCaT cells, fucosterol 5, 10, 20 μM, 24 hrs, FIG. 10
Procedure: (§2) HaCaT human keratinocytes were incubated in a Dulbecco's Modified Eagle's Media (DMEM) medium including 10% fetal bovine serum and then put in a 6-well plate with 2×10^5 cell/ml (the final volume of 3 ml). After being incubated for 24 hrs, the medium was removed and fucosterol which was dissolved in the DMEM medium was treated at 5, 10, and 20 μM concentrations, respectively. After 24 hrs, the HaCaT human keratinocytes were lysed with a NP40 buffer solution including proteinase inhibitor cocktail. The protein amount extracted from the HaCaT human keratinocytes was quantified by using a Bradford method. The sample was boiled for 5 min and then the same amount of protein ([…]) was isolated by electrophoresis with 10% SDS-PAGE. The isolated proteins after electrophoresis were transferred to a nitrocellular membrane and western blot was performed. A primary antibody was reacted and the nitrocellular membrane was washed three times by using Tris-buffer saline tween20 (TBST) for 10 min. In this case, the kind and the dilution of the primary antibody used in the present invention is 1:1000. In a secondary antibody reaction, a secondary antibody was put in the membrane performing the primary antibody reaction and reacted for 2 hrs at room temperature. In this case, a dilution of the secondary antibody was 1:5000. […]

[1] = test system: HaCaT human keratinocytes; assay: Cornified envelope formation in HaCaT human keratinocytes (absorbance 340 nm); conditions: HaCaT cells, fucosterol 5, 10, 20 μM, 96 hrs, p<0.05, FIG. 8
Procedure: HaCaT human keratinocytes were incubated in a Dulbecco's Modified Eagle's Media (DMEM) medium including 10% fetal bovine serum and then put in a 6-well plate with 2×10^5 cell/ml (the final volume of 3 ml). After being incubated for 24 hrs, the medium was removed and fucosterol which was dissolved in the DMEM medium was treated at 5, 10, and 20 μM concentrations, respectively. After incubation for 96 hrs, the incubated medium was removed from the 6-well plate to collect a cell pellet, and the cell pellet was transferred to a 1.5 mL tube and centrifuged for 10 min at 10,000 rpm to remove a supernatant. The obtained pellet was added with a Tris buffer solution including 2% sodium dodecyl sulfate (SDS) and 20 mM dithiothreitol (DTT) and boiled, and the absorbance was measured at 340 nm to evaluate the effect on cornified envelope formation. According to Equation 1 below, the formation degree of the cornified envelope compared with the control group was calculated and the result was illustrated in FIG. 8. Cornified envelope formation amount (%) compared with control group=absorbance of each test material/absorbance of control group×100 […]

tyrosinase = assay: Tyrosinase protein expression (western blot) in B16F10 melanoma cells; conditions: 200 nM α-MSH, fucosterol 5 and 20 μM, 24 hrs, FIG. 5
Procedure: B16F10 melanoma cells were incubated in a DMEM medium including 10% fetal bovine serum and then added in a 6-well plate with 2.5×10^5 cell/mL (the final volume of 3 mL). After being incubated for 24 hrs, the medium was removed and fucosterol which was dissolved in the DMEM medium including 200 nM α-MSH was treated at 5 and 20 μM of concentrations, respectively. The cells after 24 hrs were lysed with a NP40 buffer solution including proteinase inhibitor cocktail and the protein amount extracted from the cells was quantified by using a Bio-Rad protein assay dye (Bradford) reagent. The quantified protein was boiled for 5 min and isolated by electrophoresis with 10% SDS-PAGE to transfer the isolated proteins to a nitrocellular membrane. A primary antibody of tyrosinase was diluted in 2.5% bovine serum albumin at a ratio of 1:1000 and reacted with the protein transferred to the nitrocellular membrane for 20 hrs at room temperature. The primary antibody was reacted and the nitrocellular membrane was washed by using tris-buffer saline tween 20 (TBST) three times for 10 min. […] As the measured result, the protein expression of tyrosinase was verified and the loading amount of the protein was constant by α-tubulin.

B16F10 melanoma cells = assay: Microscopic observation of melanin generation in α-MSH-stimulated B16F10 melanoma cells; conditions: 200 nM α-MSH, fucosterol 5 and 20 μM, 72 hrs, FIG. 3
Procedure: B16F10 melanoma cells were incubated in a DMEM medium including 10% fetal bovine serum and then added in a 6-well plate with 2.5×10^5 cell/mL (the final volume of 3 mL). After being incubated for 24 hrs, the medium was removed and fucosterol which was dissolved in the DMEM medium including 200 nM α-MSH was treated at 5 and 20 μM of concentrations, respectively. After 72 hrs, the incubated medium was removed from the 6-well plate and the B16F10 melanoma cells were photographed by using a microscope (Olympus IX71 Model), and the result was illustrated in FIG. 3.

involucrin = assay: Involucrin protein expression (western blot) in HaCaT human keratinocytes; conditions: HaCaT cells, fucosterol 5, 10, 20 μM, 24 hrs, FIG. 10
Procedure: as §2

C/C=C(\CC[C@@H](C)[C@H]1CC[C@H]2[C@@H]3CC=C4C[C@@H](O)CC[C@]4(C)[C@H]3CC[C@]12C)C(C)C [fucosterol]
mRNA expression of loricrin (loricrin): increased
mRNA expression of filaggrin (filaggrin): increased
protein expression of transglutaminase (transglutaminase): increased
cornified envelope formation [1]: excellent cornified envelope formation effect
protein expression of tyrosinase (tyrosinase): reduced
melanin generation, microscopic observation (B16F10 melanoma cells): largely inhibited
protein expression of involucrin (involucrin): increased
